From ChEMBL document CHEMBL3817825, “Synthesis and biological evaluation of Schiff base-linked imidazolyl naphthalimides as novel potential anti-MRSA agents” (2016)
≈ marks a conversion by molar mass, not a printed value. Calls of active or inactive are those of the source. The rule behind the calls is not given here.

Assays:
Micrococcus luteus = test: Antibacterial activity against Micrococcus luteus ATCC4698 after 24 hrs by two fold serial dilution method; assay type: functional; settings: ATCC4698, 24 h
Bacillus [1] = test: Antibacterial activity against Bacillus proteus ATCC13315 after 24 hrs by two fold serial dilution method; assay type: functional; settings: ATCC13315, 24 h
Escherichia coli [2] = test: Antibacterial activity against Escherichia coli JM109 after 24 hrs by two fold serial dilution method; assay type: functional; settings: JM109, 24 h
Salmonella typhi = test: Antibacterial activity against Bacillus typhi after 24 hrs by two fold serial dilution method; assay type: functional, Salmonella enterica subsp. enterica serovar Typhi; settings: Salmonella enterica
Escherichia coli [3] = test: Antibacterial activity against Escherichia coli DH52 after 24 hrs by two fold serial dilution method; assay type: functional; settings: DH52, 24 h
Aspergillus flavus = test: Antifungal activity against Aspergillus flavus ATCC204304 after 24 hrs by two fold serial dilution method; assay type: functional; settings: ATCC204304, 24 h
Bacillus subtilis = test: Antibacterial activity against Bacillus subtilis ATCC6633 after 24 hrs by two fold serial dilution method; assay type: functional; settings: ATCC6633, 24 h
Pseudomonas aeruginosa = test: Antibacterial activity against Pseudomonas aeruginosa ATCC27853 after 24 hrs by two fold serial dilution method; assay type: functional; settings: ATCC27853, 24 h
Cyberlindnera jadinii [4] = test: Antifungal activity against Candida utilis ATCC9950 after 24 hrs by two fold serial dilution method; assay type: functional; settings: Williopsis jadinii, ATCC9950, 24 h
Candida albicans = test: Antifungal activity against Candida albicans ATCC76615 after 24 hrs by two fold serial dilution method; assay type: functional; settings: ATCC76615, 24 h
Staphylococcus aureus [5] = test: Antibacterial activity against Staphylococcus aureus ATCC25923 after 24 hrs by two fold serial dilution method; assay type: functional; settings: ATCC25923, 24 h
Shigella dysenteriae = test: Antibacterial activity against Shigella dysenteriae after 24 hrs by two fold serial dilution method; assay type: functional
Candida = test: Antifungal activity against Candida mycoderma ATCC10231 after 24 hrs by two fold serial dilution method; assay type: functional; settings: ATCC10231, 24 h
Staphylococcus aureus [6] = test: Antibacterial activity against methicillin-resistant Staphylococcus aureus N315 after 24 hrs by two fold serial dilution method; assay type: functional; settings: N315, 24 h
Cyberlindnera jadinii [7] = test: Potency index, ratio of fluconazole MIC to compound MIC for Candida utilis ATCC9950; assay type: functional
Saccharomyces cerevisiae = test: Antifungal activity against Beer yeast ATCC9763 after 24 hrs by two fold serial dilution method; assay type: functional; settings: ATCC9763, 24 h
Staphylococcus aureus [8] = test: Potency index, ratio of norfloxacin MIC to compound MIC for methicillin-resistant Staphylococcus aureus N315; assay type: functional
Staphylococcus aureus [9] = test: Ratio of MIC for methicillin-resistant Staphylococcus aureus N315 after 10 passages to MIC for methicillin-resistant Staphylococcus aureus N315 before 10 passages; assay type: functional
Calf thymus DNA [10] = test: Binding affinity to neutral red bound calf thymus DNA assessed as increase in absorption at 460 nm at 0 to 10.5 X 10^-5 mol/L by UV-Vis spectroscopy; assay type: nucleic-acid assay; settings: Bos taurus
Bacillus [11] = test: Antibacterial activity against Bacillus proteus ATCC13315 assessed as membrane permeabilization at 12 times MIC monitored for 2 hrs by propidium iodide staining method; assay type: functional, organism-based
Staphylococcus aureus [12] = test: Bactericidal activity against methicillin-resistant Staphylococcus aureus N315 assessed as reduction in viable bacterial count at 6 times MIC within 1.5 hrs by time kill assay; assay type: functional
Staphylococcus aureus [13] = test: Potency index, ratio of chloromycin MIC to compound MIC for methicillin-resistant Staphylococcus aureus N315; assay type: functional
Calf thymus DNA [14] = test: Binding affinity to calf thymus DNA at 260 nm by UV-Vis spectroscopy; assay type: nucleic-acid assay; settings: Bos taurus
Staphylococcus aureus [15] = test: Antibacterial activity against methicillin-resistant Staphylococcus aureus N315 assessed as membrane permeabilization at 12 times MIC monitored for 2 hrs by propidium iodide staining method; assay type: functional, organism-based
Calf thymus DNA [16] = test: Binding affinity to calf thymus DNA assessed as hypochromism at 260 nm at 0 to 9 X 10^-5 mol/L by UV-Vis spectroscopy; assay type: nucleic-acid assay; settings: Bos taurus
Staphylococcus aureus [17] = test: Antibacterial activity against methicillin-resistant Staphylococcus aureus N315 at 0.5 times MIC after 10 passages by two fold serial dilution method; assay type: functional, organism-based

CCCCCCCCCCn1c(CCCC)nc(Cl)c1/C=N/N1C(=O)c2cccc3c(N4CCOCC4)ccc(c23)C1=O
MIC (Micrococcus luteus): 840 µM (≈ 509 µg/mL)
MIC (Bacillus [1]): 210 µM (≈ 127 µg/mL)
MIC (Escherichia coli [2]): 840 µM (≈ 509 µg/mL)
MIC (Salmonella typhi): 0.84 µM (≈ 0.509 µg/mL)
MIC (Escherichia coli [3]): 420 µM (≈ 255 µg/mL)
MIC (Aspergillus flavus): 210 µM (≈ 127 µg/mL)
MIC (Bacillus subtilis): 30 µM (≈ 18.2 µg/mL)
MIC (Pseudomonas aeruginosa): 420 µM (≈ 255 µg/mL)
MIC (Cyberlindnera jadinii [4]): 3 µM (≈ 1.82 µg/mL)
MIC (Candida albicans): 210 µM (≈ 127 µg/mL)
MIC (Staphylococcus aureus [5]): 420 µM (≈ 255 µg/mL)
MIC (Shigella dysenteriae): 0.1 µM (≈ 0.0606 µg/mL)
MIC (Candida): 210 µM (≈ 127 µg/mL)
MIC (Staphylococcus aureus [6]): 30 µM (≈ 18.2 µg/mL)
Ratio (Cyberlindnera jadinii [7]): 10
MIC (Saccharomyces cerevisiae): 420 µM (≈ 255 µg/mL)

CCCCc1nc(Cl)c(/C=N/N2C(=O)c3cccc4c(N5CCOCC5)ccc(c34)C2=O)n1Cc1ccc([N+](=O)[O-])cc1
MIC (Micrococcus luteus): 850 µM (≈ 511 µg/mL)
Ratio (Staphylococcus aureus [8]): 7
MIC (Bacillus [1]): 110 µM (≈ 66.1 µg/mL)
MIC (Escherichia coli [2]): 50 µM (≈ 30.1 µg/mL)
Ratio (Staphylococcus aureus [9]): <=100
MIC (Salmonella typhi): 0.11 µM (≈ 0.0661 µg/mL)
Activity (Calf thymus DNA [10]): Active
Activity (Bacillus [11]): Active
MIC (Escherichia coli [3]): 420 µM (≈ 252 µg/mL)
MIC (Aspergillus flavus): 110 µM (≈ 66.1 µg/mL)
MIC (Bacillus subtilis): 210 µM (≈ 126 µg/mL)
MIC (Pseudomonas aeruginosa): 50 µM (≈ 30.1 µg/mL)
MIC (Cyberlindnera jadinii [4]): 10 µM (≈ 6.01 µg/mL)
MIC (Candida albicans): 3 µM (≈ 1.8 µg/mL)
Activity (Staphylococcus aureus [12]): >3 log10CFU/ml
MIC (Staphylococcus aureus [5]): 210 µM (≈ 126 µg/mL)
MIC (Shigella dysenteriae): 0.11 µM (≈ 0.0661 µg/mL)
MIC (Candida): 50 µM (≈ 30.1 µg/mL)
Ratio (Staphylococcus aureus [13]): 17
K (Calf thymus DNA [14]): 0.59 ×10⁴ L/mol
Activity (Staphylococcus aureus [15]): Active
MIC (Staphylococcus aureus [6]): 3 µM (≈ 1.8 µg/mL)
Activity (Calf thymus DNA [16]): Active
Activity (Staphylococcus aureus [17]): Active
MIC (Saccharomyces cerevisiae): 420 µM (≈ 252 µg/mL)
